# From US20080234188A1, “Antimicrobial Peptides” (The Hospital for Sick Children, priority 2001, published 2008)
# Where a SMILES comes first, the peptide text is derived from it.
# Experiments:
# [1] = tested on: C498: E. coli, wild type strain; type: cell-based; details: for MIC C498: wild type strain
# Text: (§1) The bacterial strains used were E. coli C498, E. coli C500, Escherichia coli UB1005 and its antibiotic supersusceptible derivative DC2 (22); a clinical isolate of Staphylococcus epidermidis (C621); coryneform bacterial strain Corynebacterium xerosis (C875); and E. coli ATCC 25922, Staphylococcus aureus ATCC 25923, Enterococcus faecalis ATCC 29212, Bacillus subtilis ATCC 6633 and Pseudomonas aeruginosa ATCC 27853, all from American Type Culture Collection.
# (§2) Peptide antibacterial activity was assessed by the method of R. Hancock et al. (Wu & Hancock (1999), J. Biol. Chem., v. 274, pp. 29-35). Test strains of bacteria from Mueller Hinton agar (MHA) plates were inoculated into 5 ml Mueller Hinton Broth (MHB) in tubes and grown overnight at 37° C. on a shaker (180 rpm). Serial dilutions of test peptides (at 10 times the required test concentrations) were made in 0.01% acetic acid, 0.2% BSA, in polypropylene or coated glass tubes as follows: the test peptide was (a) dissolved in distilled water at 20 times the required maximum concentration (enough final volume for all tests to be performed on a given day); (b) diluted into an equal volume of 0.02% acetic acid, 0.4% BSA to give 10 times the required maximum concentration; (c) serial doubling dilutions were performed in 0.01% acetic acid, 0.2% BSA to provide serial dilutions of peptides at 10 times the required test concentrations, e.g., 640, 320, 160, . . . 2.5 μg/ml. (No deleterious effects of long-term storage of peptides in these media have been detected). Overnight bacterial cultures were diluted in MHB to give 2−7×10^5 colony forming units/ml. Bacterial suspension (100 μl) was dispensed in each well; controls without bacteria were maintained in parallel. To each well was added 11 μl of 10× test peptide and plates were incubated at 37° C. for 18-24 hours, and checked again at 40-48 hours. Plates were read visually and at 600 nm in a microplate reader (Molecular Devices).
# (§3) were synthesized. The antibacterial activity of these peptides was determined against both Gram-positive bacteria ([…], Corynebacterium xerosis) and Gram-negative bacteria (various strains of E. coli). The results are shown in Table 2, along with the average hydrophobicity of each peptide, calculated as described herein.
# [2] = tested on: C500: E. coli, antibiotic strain; type: cell-based; details: for MIC C500: antibiotic strain
# Text: as §1, §2, §3
# [3] = tested on: Corynebacterium xerosis (C875); type: cell-based
# Text: as §1, §2, §3
# (§4) A further number of the peptides of the invention were tested for antimicrobial activity against a range of Gram-positive and Gram-negative bacteria by the assay described immediately before Example 1.
# [4] = tested on: Staphylococcus epidermidis (C621); type: cell-based
# Text: as §1, §2, §3, §4
# [5] = tested on: E. coli DC2; experiment: Assay of antibacterial activity (MIC), E. coli DC2; type: cell-based, Escherichia coli; details: Table 3; Gram-negative
# Text: as §1, §2, §4
# [6] = tested on: E. coli UB1005; type: cell-based, Escherichia coli; details: UB1005
# Text: as §1, §2, §4
# [7] = Hydrophobicity (hydropathy) from reverse-phase HPLC retention scale; type: physicochemical; set-up: key to Average Hydrophobicity of Core Sequence / Mean Core segment Hydrophobicity: arithmetic average of Table 1 hydropathy values of constituent residues; key to Hydropathy: hydropathy scale from HPLC retention times of model peptides (Table 1); details: for Mean residue hydropathy of X-residue peptide / Hydropathy: Table 1; for Hydropathy: of the X-residue, from HPLC retention of KKAAAXAAAAAXAAWAAXAAAKKKK-amide peptides; for Average Hydrophobicity of Core Sequence: Table 2, calculated from Table 1 hydropathy values; for Mean Core segment Hydrophobicity: Table 3
# Text: The “hydrophobicity value” of an amino acid residue means the hydrophobicity value of that residue as shown in Table 1 or as calculated by the method described herein.
# The “hydrophobicity value” of an amino acid sequence or peptide means the arithmetic average of the individual hydrophobicity values of the constituent amino acid residues of the sequence.
# Various hydrophobicity scales for proteins and amino acids have been described in the literature but the inventors have established the hydrophobicity scale of Table 1 based on the retention times on HPLC of a series of hydrophobic model peptides, as described in Liu and Deber (1998), Biopolymers (Peptide Science), v. 47, pp. 41-62).
# The hydrophobicity value shown for each amino acid in Table 1 as “hydropathy” may be used as the hydrophobicity value for that amino acid in any peptide whose hydrophobicity value has to be calculated. The “average hydrophobicity” of a peptide containing amino acids shown in Table 1 is calculated by determining the arithmetic average of the Table 1 “hydropathy” values for the constituent amino acids of the sequence.
# Peptides in accordance with the invention may also include other amino acids. For an amino acid not included in Table 1, the hydrophobicity value may be determined by the same method as described herein for obtaining the values of Table 1. For example, a peptide such as KKAAAXAAAAAXAAXAAXAAAKKKK-amide (Sequence ID No: 1) may be synthesized, where X is the amino acid whose hydrophobicity value is to be determined, and the retention time of the peptide on HPLC is determined, as described in the Examples. Similar peptides where X is Lys or Phe are also prepared and their HPLC retention times determined. The retention time, Rx, is converted to the hydropathy value H for the selected amino acid using the equation
# H=(10×ΔtRx-Lys/ΔtRPhe-Lys)−5.00
# where ΔtRx-Lys=retention time difference in minutes between Rx and the retention time of the most hydrophilic peptide tested (X=Lys) and where ΔtRPhe-Lys=retention time difference in minutes between the most hydrophobic peptide tested (X=Phe) and the most hydrophilic (X=Lys).
# The retention time of each peptide was determined on a C4 reversed-phase column (4.6×250 mm, 300 A pore size, 10 μ particle size). Equal amounts of each peptide were injected into the column and eluted at a flow rate of 1 mL/min, utilizing a linear AB gradient (2% B/min), where buffer A was 0.1% TFA/ddH2O, and buffer B was 0.1% TFA/acetonitrile. The retention time of each peptide reported here was the average of triplicate measurements.
Compound,MIC C498 [1] [µM],MIC C500 [2] [µM],MIC C875 [3] [µM],MIC C. xerosis C875 [3] [µM],MIC C621 [4] [µM],MIC S. epidermidis C621 [4] [µM],MIC E. coli DC2 [5] [µM],MIC E. coli UB1005 [6] [µM],Mean residue hydropathy of X-residue peptide [7],Hydropathy [7],Average Hydrophobicity of Core Sequence [7],Mean Core segment Hydrophobicity [7],"MIC C498 (active/inactive) ([1]; Table 2, class symbols)","MIC C500 (active/inactive) ([2]; Table 2, class symbols)","MIC C875 (active/inactive) ([3]; Table 2, class symbols)","MIC C621 (active/inactive) ([4]; Table 2, class symbols)"
C[C@H](NC(=O)[C@H](C)NC(=O)[C@H](C)NC(=O)[C@H](Cc1ccc(O)cc1)NC(=O)[C@H](C)NC(=O)[C@H](C)NC(=O)[C@H](C)NC(=O)[C@H](CCCCN)NC(=O)[C@@H](N)CCCCN)C(=O)N[C@@H](C)C(=O)N[C@@H](C)C(=O)N[C@@H](Cc1ccc(O)cc1)C(=O)N[C@@H](C)C(=O)N[C@@H](C)C(=O)N[C@@H](Cc1c[nH]c2ccccc12)C(=O)N[C@@H](C)C(=O)N[C@@H](C)C(=O)N[C@@H](Cc1ccc(O)cc1)C(=O)N[C@@H](C)C(=O)N[C@@H](C)C(=O)N[C@@H](C)C(=O)N[C@@H](CCCCN)C(=O)N[C@@H](CCCCN)C(=O)N[C@@H](CCCCN)C(=O)N[C@@H](CCCCN)C(N)=O [Peptide Y25] (H-KKAAAYAAAAAYAAWAAYAAAKKKK-NH2; N-terminus assumed),11,5,0.2,<0.25,3,8,16,32,0.71,2.00,0.71,0.71,,,,
CC(C)C[C@H](NC(=O)[C@H](C)NC(=O)[C@H](C)NC(=O)[C@H](C)NC(=O)[C@H](CCCCN)NC(=O)[C@@H](N)CCCCN)C(=O)N[C@@H](C)C(=O)N[C@@H](C)C(=O)N[C@@H](C)C(=O)N[C@@H](C)C(=O)N[C@@H](C)C(=O)N[C@@H](CC(C)C)C(=O)N[C@@H](C)C(=O)N[C@@H](C)C(=O)N[C@@H](Cc1c[nH]c2ccccc12)C(=O)N[C@@H](C)C(=O)N[C@@H](C)C(=O)N[C@@H](CC(C)C)C(=O)N[C@@H](C)C(=O)N[C@@H](C)C(=O)N[C@@H](C)C(=O)N[C@@H](CCCCN)C(=O)N[C@@H](CCCCN)C(=O)N[C@@H](CCCCN)C(=O)N[C@@H](CCCCN)C(N)=O [Peptide L25] (H-KKAAALAAAAALAAWAALAAAKKKK-NH2; N-terminus assumed),6,6,0.2,<0.25,1.5,2,16,32,1.14,4.76,1.14,1.14,,,,
CSCC[C@H](NC(=O)[C@H](C)NC(=O)[C@H](C)NC(=O)[C@H](C)NC(=O)[C@H](CCCCN)NC(=O)[C@@H](N)CCCCN)C(=O)N[C@@H](C)C(=O)N[C@@H](C)C(=O)N[C@@H](C)C(=O)N[C@@H](C)C(=O)N[C@@H](C)C(=O)N[C@@H](CCSC)C(=O)N[C@@H](C)C(=O)N[C@@H](C)C(=O)N[C@@H](Cc1c[nH]c2ccccc12)C(=O)N[C@@H](C)C(=O)N[C@@H](C)C(=O)N[C@@H](CCSC)C(=O)N[C@@H](C)C(=O)N[C@@H](C)C(=O)N[C@@H](C)C(=O)N[C@@H](CCCCN)C(=O)N[C@@H](CCCCN)C(=O)N[C@@H](CCCCN)C(=O)N[C@@H](CCCCN)C(N)=O [[M25]] (H-KKAAAMAAAAAMAAWAAMAAAKKKK-NH2; N-terminus assumed),,,,0.5,,16,32,>32,0.90,3.23,0.89,0.90,+,+,+,+
CC[C@H](C)[C@H](NC(=O)[C@H](C)NC(=O)[C@H](C)NC(=O)[C@H](C)NC(=O)[C@H](CCCCN)NC(=O)[C@@H](N)CCCCN)C(=O)N[C@@H](C)C(=O)N[C@@H](C)C(=O)N[C@@H](C)C(=O)N[C@@H](C)C(=O)N[C@@H](C)C(=O)N[C@H](C(=O)N[C@@H](C)C(=O)N[C@@H](C)C(=O)N[C@@H](Cc1c[nH]c2ccccc12)C(=O)N[C@@H](C)C(=O)N[C@@H](C)C(=O)N[C@H](C(=O)N[C@@H](C)C(=O)N[C@@H](C)C(=O)N[C@@H](C)C(=O)N[C@@H](CCCCN)C(=O)N[C@@H](CCCCN)C(=O)N[C@@H](CCCCN)C(=O)N[C@@H](CCCCN)C(N)=O)[C@@H](C)CC)[C@@H](C)CC [Peptide I25] (H-KKAAAIAAAAAIAAWAAIAAAKKKK-NH2; N-terminus assumed),10,10,,<0.25,5,4,16,>32,1.09,4.41,1.09,1.09,,,,
